Measured values as given in ChEMBL document CHEMBL4350974, “Synthesis and biological evaluation of methylpyrimidine-fused tricyclic diterpene analogs as novel oral anti-late-onset hypogonadism agents” (Eur J Med Chem, 2019).
Activity calls are given as the source filed them. The calls are words filed in the database; no cut-off is given here.

Legend:
[1] = system: TM3; assay: Induction of testosterone production in mouse TM3 cells assessed as increase in testosterone level at 20 uM measured after 24 hrs by ELISA relative to control; format: functional
[2] = Cytotoxicity against mouse TM3 cells assessed as reduction in cell viability measured after 24 hrs by sulforhodamine B assay; format: cell-based
[3] = system: Rattus norvegicus; assay: Anti late-onset hypogonadism activity in cyclophosphamide-induced Sprague-Dawley rat model of partial androgen deficiency assessed as intratesticular testosterone level at 10 mg/kg, sc administered for every 3 days up to 4 weeks ELISA (reference value: 137.99 +/- 19.27 nmol/L); format: functional
[4] = system: Rattus norvegicus; assay: Anti late-onset hypogonadism activity in cyclophosphamide-induced Sprague-Dawley rat model of partial androgen deficiency assessed as increase in free testosterone level at 10 mg/kg, sc administered for every 3 days up to 4 weeks and measured every 2 weeks by ELISA; format: functional, organism-based
[5] = system: Rattus norvegicus; assay: Anti late-onset hypogonadism activity in cyclophosphamide-induced Sprague-Dawley rat model of partial androgen deficiency assessed as increase in serum total testosterone level at 10 mg/kg, sc administered for every 3 days up to 4 weeks and measured every 2 weeks by ELISA; format: functional, organism-based
[6] = Toxicity in cyclophosphamide-induced Sprague-Dawley rat model of partial androgen deficiency assessed as decrease in body weight at 10 mg/kg, sc administered for every 3 days up to 4 weeks and measured every 3 days; format: organism-based; details: in vivo
[7] = system: Rattus norvegicus; assay: Anti late-onset hypogonadism activity in cyclophosphamide-induced Sprague-Dawley rat model of partial androgen deficiency assessed as inhibition of Leydig cells apoptosis at 10 mg/kg, sc administered for every 3 days up to 4 weeks by DAPI staining based TUNEL assay; format: functional, organism-based
[8] = organism: Rattus norvegicus; assay: Potency index, ratio of test compound effect to testosterone effect for anti late-onset hypogonadism activity in cyclophosphamide-induced Sprague-Dawley rat model of partial androgen deficiency assessed as inhibition of Leydig cells apoptosis; format: functional
[9] = system: Rattus norvegicus; assay: Anti late-onset hypogonadism activity in cyclophosphamide-induced Sprague-Dawley rat model of partial androgen deficiency assessed as weight of testis at 10 mg/kg, sc administered for every 3 days for 4 weeks (reference value: 1.47 +/- 0.13 g); format: functional
[10] = system: Rattus norvegicus; assay: Anti late-onset hypogonadism activity in cyclophosphamide-induced Sprague-Dawley rat model of partial androgen deficiency assessed as weight of seminal vesicles at 10 mg/kg, sc administered for every 3 days for 4 weeks Rvb = 1.33 +/- 0.26 g); format: functional
[11] = Toxicity in cyclophosphamide - induced Sprague-Dawley rat model of partial androgen deficiency assessed as sperm viability by semen analysis (reference value: 95.1 +/- 3.2 %)
[12] = Toxicity in cyclophosphamide - induced Sprague-Dawley rat model of partial androgen deficiency assessed as sperm motility by semen analysis (reference value: 88.3 +/- 7.3 %); details: in vivo

SMILES	Activity [1] [%]	CC50 at 24 h [2] [µM]	other results
COc1ccc2c(c1)[C@@]1(C)Cc3nccnc3C(C)(C)C1CC2 (some centres not stated)	134	71.3	–
COc1ccc2c(c1)[C@@]1(C)Cc3c([nH]c4ccccc34)C(C)(C)C1CC2 (some centres not stated)	183.4	< 50	–
COc1ccc2c(c1)[C@@]1(C)Cc3c(n[nH]c3C(=O)O)C(C)(C)C1CC2 (some centres not stated)	128.2	> 200	–
COc1ccc2c(c1)[C@@]1(C)Cc3sc(N)nc3C(C)(C)C1CC2 (some centres not stated)	110.9	< 50	–
COc1ccc2c(c1)[C@@]1(C)Cc3c[nH]nc3C(C)(C)C1CC2 (some centres not stated)	116.6	< 50	–
CCOC(=O)c1[nH]nc2c1C[C@]1(C)c3cc(OC)ccc3CCC1C2(C)C (some centres not stated)	160.9	< 50	–
COc1cc2c(cc1C(N)=O)CCC1C(C)(C)c3nc(C)ncc3C[C@]21C (mixture of isomers)	169.8	> 200	–
C=CCNC(=O)c1cc2c(cc1OC)[C@@]1(C)Cc3cnc(C)nc3C(C)(C)C1CC2 (mixture of isomers)	142.9	–	–
C#CCOc1ccc2c(c1)[C@@]1(C)Cc3cnc(C)nc3C(C)(C)C1CC2 (mixture of isomers)	120.5	–	–
CCc1ccc(NC(=O)c2cc3c(cc2OC)[C@@]2(C)Cc4cnc(C)nc4C(C)(C)C2CC3)cc1 (mixture of isomers)	167.8	< 50	–
COc1cc2c(cc1C(=O)NN1CCCCC1)CCC1C(C)(C)c3nc(C)ncc3C[C@]21C (mixture of isomers)	111.5	–	–
COc1ccc2c(c1)[C@@]1(C)Cc3cnc(C)nc3C(C)(C)C1C/C2=N/O (mixture of isomers)	128.5	–	–
CCCNC(=O)c1cc2c(cc1OC)[C@@]1(C)Cc3cnc(C)nc3C(C)(C)C1CC2 (mixture of isomers)	140.9	–	–
COc1cccc(NC(=O)c2cc3c(cc2OC)[C@@]2(C)Cc4cnc(C)nc4C(C)(C)C2CC3)c1 (mixture of isomers)	173.6	< 50	–
COc1ccc2c(c1)[C@@]1(C)Cc3cnc(C)nc3C(C)(C)C1C=C2 (mixture of isomers)	129.8	–	–
Cc1ncc2c(n1)C(C)(C)C1CCc3ccc(OCc4ccccc4)cc3[C@@]1(C)C2 (mixture of isomers)	133	–	–
COc1cc2c(cc1NC(C)=O)CCC1C(C)(C)c3nc(C)ncc3C[C@]21C (mixture of isomers)	157.6	> 200	–
COc1ccc2c(c1)[C@@]1(C)Cc3cnc(C)nc3C(C)(C)C1CC2=O (mixture of isomers)	109.9	–	–
COc1cc2c(cc1C(=O)O)CCC1C(C)(C)c3nc(C)ncc3C[C@]21C (mixture of isomers)	121.2	–	–
COc1cc2c(cc1C(=O)Nc1ccc3[nH]ncc3c1)CCC1C(C)(C)c3nc(C)ncc3C[C@]21C (mixture of isomers)	181.5	< 50	–
Cc1ncc2c(n1)C(C)(C)C1CCc3ccc(OCc4cccc([N+](=O)[O-])c4)cc3[C@@]1(C)C2 (mixture of isomers)	122.4	–	–
COc1ccc2c(c1)[C@@]1(C)Cc3cnc(C)nc3C(C)(C)C1CC2 (mixture of isomers)	145	151	–
CCNC(=O)c1cc2c(cc1OC)[C@@]1(C)Cc3cnc(C)nc3C(C)(C)C1CC2 (mixture of isomers)	141.3	–	–

SMILES	Activity [1] [%]	CC50 at 24 h [2] [µM]	other results
COc1cc2c(cc1C(=O)NO)CCC1C(C)(C)c3nc(C)ncc3C[C@]21C (mixture of isomers)	189.5	82.2	–
Cc1ncc2c(n1)C(C)(C)C1CCc3ccc(O)cc3[C@@]1(C)C2 (mixture of isomers)	124.4	–	–
COc1cc2c(cc1C(=O)Nc1nccs1)CCC1C(C)(C)c3nc(C)ncc3C[C@]21C (mixture of isomers)	134.1	–	–
C#CCNC(=O)c1cc2c(cc1OC)[C@@]1(C)Cc3cnc(C)nc3C(C)(C)C1CC2 (mixture of isomers)	118.1	–	–
CCCOc1ccc2c(c1)[C@@]1(C)Cc3cnc(C)nc3C(C)(C)C1CC2 (mixture of isomers)	113.2	–	–
CCCCCNC(=O)c1cc2c(cc1OC)[C@@]1(C)Cc3cnc(C)nc3C(C)(C)C1CC2 (mixture of isomers)	171.9	< 50	–
COc1cc2c(cc1Br)CCC1C(C)(C)c3nc(C)ncc3C[C@]21C (mixture of isomers)	119.2	–	–
COc1cc2c(cc1C(=O)NCC(C)C)CCC1C(C)(C)c3nc(C)ncc3C[C@]21C (mixture of isomers)	114.7	–	–
CCCCNC(=O)c1cc2c(cc1OC)[C@@]1(C)Cc3cnc(C)nc3C(C)(C)C1CC2 (mixture of isomers)	166.9	< 50	–
COc1cc2c(cc1C(=O)NN)CCC1C(C)(C)c3nc(C)ncc3C[C@]21C (mixture of isomers)	130	> 200	–
Cc1ncc2c(n1)C(C)(C)C1CCc3ccc(OC(C)C)cc3[C@@]1(C)C2 (mixture of isomers)	129.3	–	–
CNCc1cc2c(cc1OC)[C@@]1(C)Cc3cnc(C)nc3C(C)(C)C1CC2 (mixture of isomers)	176.6	124	–
COc1cc2c(cc1C(=O)NCc1cccc(Cl)c1)CCC1C(C)(C)c3nc(C)ncc3C[C@]21C (mixture of isomers)	164.2	< 50	–
COc1cc2c(cc1N)CCC1C(C)(C)c3nc(C)ncc3C[C@]21C.Cl (mixture of isomers)	146.6	127	–
COc1cc2c(cc1C(=O)N(C)C)CCC1C(C)(C)c3nc(C)ncc3C[C@]21C (mixture of isomers)	133.1	> 200	–
COc1cc2c(cc1C(=O)N1CCc3ccccc31)CCC1C(C)(C)c3nc(C)ncc3C[C@]21C (mixture of isomers)	116.9	–	–
COc1cc2c(cc1C(=O)Nc1ccccc1)CCC1C(C)(C)c3nc(C)ncc3C[C@]21C (mixture of isomers)	156.8	< 50	–
COc1cc2c(cc1C(=O)NC1CCCC1)CCC1C(C)(C)c3nc(C)ncc3C[C@]21C (mixture of isomers)	122.4	–	–
COc1cc2c(cc1C(=O)Nc1ncco1)CCC1C(C)(C)c3nc(C)ncc3C[C@]21C (mixture of isomers)	176.9	< 50	–
C=CCOc1ccc2c(c1)[C@@]1(C)Cc3cnc(C)nc3C(C)(C)C1CC2 (mixture of isomers)	142	–	–
COc1ccc(-c2oc3c(CC=C(C)C)c(O[C@@H]4O[C@H](CO)[C@@H](O)[C@H](O)[C@H]4O)cc(O)c3c(=O)c2O[C@@H]2O[C@@H](C)[C@H](O)[C@@H](O)[C@H]2O)cc1 [ICARIIN]	139.6	> 200	–
C[C@]12CC[C@H]3[C@@H](CCC4=CC(=O)CC[C@@]43C)[C@@H]1CC[C@@H]2O [TESTOSTERONE]	–	–	Activity [3]: 145.38 nmol/L; Activity [4]: Active; Activity [5]: Active; Activity [6]: Non-Toxic; inhibition [7]: Active; Ratio [8]: 2; Activity [9]: 1.53 g; Activity [10]: 1.64 g; Activity [11]: 88.8%; Activity [12]: 79.8%
